Results: patent publication US11840686B2, “Modulation of prekallikrein (PKK) expression” (Ionis Pharmaceuticals, Inc., priority 2013, dated 2023)
Strand notation (5' to 3'): a small letter for the sugar, then the base; units joined by * are phosphorothioate-linked, units joined directly phosphodiester-linked; [ ] holds rarer units or linkages, { } end groups; capitals alone tell only the bases. e = 2'-O-(2-methoxyethyl) (MOE); [5mC] = 5-methylcytosine; d = 2'-deoxy (DNA)

Test system: human PKK mRNA
Experiment: Antisense inhibition of human PKK mRNA in HepaRG cells, 3,000 nM (Example 1)
Type: cell-based
Details: relative to untreated control cells
Method in brief: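 Values give percent PKK mRNA reduction relative to untreated controls, normalised to RIBOGREEN total RNA. mRNA was quantified by real-time PCR (RTS3454) about 24 h after electroporation. Each 20-mer MOE gapmer was delivered at 3,000 nM into 20,000 HepaRG cells per well.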

[1] = Table 3, HepaRG cells, electroporation with 3,000 nM antisense oligonucleotide, approx. 24 hours, PKK mRNA by RT-PCR (RTS3454)
[2] = Table 4, HepaRG cells, electroporation with 3,000 nM antisense oligonucleotide, approx. 24 hours, PKK mRNA by RT-PCR (RTS3454)
[3] = Table 1, PKK mRNA, HepaRG cells, 3,000 nM, electroporation, ~24 h
[4] = Table 2, PKK mRNA, HepaRG cells, 3,000 nM, electroporation, ~24 h

“531120 (antisense eA*eA*eA*eT*eA*dA*dA*dA*dG*d[5mC]*dA*d[5mC]*dT*d[5mC]*dA*eG*eA*e[5mC]*eT*eG) [compound 531120]” was tested, and the “% inhibition” value [1] was 0%.

In the case of “531221 (eA*eA*eG*eG*eG*dA*dT*dT*dT*dA*dA*dA*dA*dT*dT*eT*eT*eT*eA*eT; antisense) [compound 531221]”, the “% inhibition” value [2] is reported as 0%.

In the case of “531180 (antisense e[5mC]*e[5mC]*eT*e[5mC]*eT*dT*dA*dA*dG*dT*d[5mC]*dA*d[5mC]*d[5mC]*dA*eT*eA*eG*eA*e[5mC]) [compound 531180]”, the “% inhibition” value [2] is reported as 45%.

In the case of “531169 (antisense eT*eG*eG*eG*e[5mC]*dT*d[5mC]*dA*d[5mC]*d[5mC]*d[5mC]*d[5mC]*dA*dG*dT*eG*eG*eA*e[5mC]*e[5mC]) [compound 531169]”, the “% inhibition” value [2] is reported as 54%.

“531201 (eT*eT*eT*e[5mC]*e[5mC]*dA*dA*dT*dA*d[5mC]*dT*dT*dT*dT*dA*e[5mC]*eA*eA*eA*eT; antisense) [compound 531201]” was tested, and the “% inhibition” value [2] was 52%.

In the case of “530934 (antisense e[5mC]*eT*eT*e[5mC]*eT*dT*dG*dG*dA*dG*dG*dT*dG*dA*dG*eT*e[5mC]*eT*e[5mC]*eT) [compound 530934]”, the “% inhibition” value [3] is reported as 54%.

For “530945 (antisense eA*eT*e[5mC]*e[5mC]*e[5mC]*d[5mC]*dA*d[5mC]*d[5mC]*dT*d[5mC]*dT*dG*dA*dA*eG*eA*eA*eG*eG) [compound 530945]”, the “% inhibition” value [3] was 0%.

For “531210 (eA*eG*eA*e[5mC]*eA*dT*dT*dG*dT*d[5mC]*dA*dA*dA*dT*dG*eT*e[5mC]*e[5mC]*e[5mC]*e[5mC]; antisense) [compound 531210]”, the “% inhibition” value [2] was 60%.

With “531129 (antisense eA*eG*e[5mC]*eA*eG*d[5mC]*dT*d[5mC]*dA*d[5mC]*dA*d[5mC]*d[5mC]*d[5mC]*dA*eA*eA*eA*eA*eG) [compound 531129]” the “% inhibition” value [1] was 0%.

“530951 (antisense e[5mC]*eA*eA*eA*e[5mC]*dA*d[5mC]*d[5mC]*dT*dT*dG*dG*dG*dT*dG*eG*eA*eA*eT*eG) [compound 530951]” was tested, and the “% inhibition” value [3] was 49%.

“531206 (eG*eA*eA*eA*eT*dG*dT*d[5mC]*dT*dA*dG*d[5mC]*dA*dT*dT*eT*eT*e[5mC]*eT*eA; antisense) [compound 531206]” was tested, and the “% inhibition” value [2] was 28%.

“531212 (eA*e[5mC]*eA*eT*e[5mC]*dA*dG*dT*dA*dG*d[5mC]*dT*dT*d[5mC]*dA*eG*eA*eT*eG*eT; antisense) [compound 531212]” was tested, and the “% inhibition” value [2] was 56%.

With “530977 (antisense eT*e[5mC]*e[5mC]*eA*eG*dA*dT*dA*dT*dG*dG*dT*dG*dT*dT*eT*eT*e[5mC]*eT*eT) [compound 530977]” the “% inhibition” value [3] was 55%.

With “531156 (antisense eT*e[5mC]*eT*eG*eA*dA*dA*dA*dG*d[5mC]*d[5mC]*d[5mC]*dT*d[5mC]*d[5mC]*eG*eA*eG*e[5mC]*eT) [compound 531156]” the “% inhibition” value [1] was 0%.

With “531046 (antisense eG*eA*eT*eA*eT*d[5mC]*dT*dT*dT*dT*d[5mC]*dT*dG*dG*d[5mC]*eA*eT*eT*e[5mC]*eT) [compound 531046]” the “% inhibition” value [4] was 54%.

With “531007 (eA*eA*e[5mC]*eA*e[5mC]*dA*dA*dT*dT*dG*d[5mC]*dT*dT*d[5mC]*dT*eT*eG*eG*eA*eG; antisense) [compound 531007]” the “% inhibition” value [4] was 51%.

With “531179 (antisense eG*eA*eT*eT*eG*dG*dA*d[5mC]*d[5mC]*d[5mC]*dA*dG*dA*d[5mC]*dA*e[5mC]*eT*eA*eT*eA) [compound 531179]” the “% inhibition” value [2] was 57%.

In the case of “531135 (antisense eA*eA*eT*eG*eT*dT*dG*dT*dG*dA*dA*dT*dA*d[5mC]*d[5mC]*eA*eT*e[5mC]*e[5mC]*e[5mC]) [compound 531135]”, the “% inhibition” value [1] is reported as 16%.

For “531213 (e[5mC]*eA*eA*eA*eA*dT*dT*dA*dA*dT*dT*dG*dT*dG*d[5mC]*eA*eT*eA*eA*eT; antisense) [compound 531213]”, the “% inhibition” value [2] was 13%.

In the case of “530984 (antisense eT*eT*eA*eG*eA*dA*dT*dG*dG*d[5mC]*dA*dG*dG*dG*dT*eT*e[5mC]*eA*eG*eG) [compound 530984]”, the “% inhibition” value [3] is reported as 25%.

With “531163 (antisense eT*e[5mC]*eA*eG*e[5mC]*dA*dG*dA*dA*dA*dT*d[5mC]*dA*dT*dG*eT*eA*eG*eG*e[5mC]) [compound 531163]” the “% inhibition” value [2] was 60%.

In the case of “531064 (antisense eG*eT*eG*eT*eA*dG*dA*d[5mC]*dA*d[5mC]*d[5mC]*dA*dG*dG*dT*eT*eG*e[5mC]*eT*e[5mC]) [compound 531064]”, the “% inhibition” value [4] is reported as 56%.

With “531195 (eA*eT*eA*eA*eA*dA*dT*dA*dT*dA*dT*dT*dA*dA*dG*eG*e[5mC]*eA*eA*e[5mC]; antisense) [compound 531195]” the “% inhibition” value [2] was 61%.

In the case of “531010 (eA*eA*eG*eA*eG*dT*dT*dT*dG*dT*dT*d[5mC]*d[5mC]*dT*d[5mC]*e[5mC]*eA*eA*e[5mC]*eA; antisense) [compound 531010]”, the “% inhibition” value [4] is reported as 52%.

With “531063 (antisense eG*eA*e[5mC]*eA*e[5mC]*d[5mC]*dA*dG*dG*dT*dT*dG*d[5mC]*dT*d[5mC]*e[5mC]*e[5mC]*eT*eG*e[5mC]) [compound 531063]” the “% inhibition” value [4] was 51%.

For “531074 (e[5mC]*eT*eT*eT*eG*d[5mC]*dA*dG*dA*dT*dG*dA*dG*dG*dA*e[5mC]*e[5mC]*e[5mC]*e[5mC]*e[5mC]; antisense) [compound 531074]”, the “% inhibition” value [4] was 67%.

“531086 (e[5mC]*e[5mC]*eT*eG*e[5mC]*d[5mC]*dT*d[5mC]*d[5mC]*dT*dG*dG*d[5mC]*dA*dG*e[5mC]*e[5mC]*eT*eT*e[5mC]; antisense) [compound 531086]” was tested, and the “% inhibition” value [1] was 48%.

With “531056 (antisense eT*eT*eT*e[5mC]*e[5mC]*d[5mC]*d[5mC]*d[5mC]*dT*dT*d[5mC]*dT*dT*dT*dA*eT*eA*eG*e[5mC]*e[5mC]) [compound 531056]” the “% inhibition” value [4] was 45%.

With “531015 (eT*eA*eT*eG*eA*dG*dT*dG*dA*d[5mC]*d[5mC]*d[5mC]*dT*d[5mC]*d[5mC]*eA*e[5mC]*eA*e[5mC]*eA; antisense) [compound 531015]” the “% inhibition” value [4] was 52%.

With “530968 (antisense e[5mC]*eA*eA*eG*eA*dT*dG*d[5mC]*dT*dG*dG*dA*dA*dG*dA*eT*eG*eT*eT*e[5mC]) [compound 530968]” the “% inhibition” value [3] was 18%.

With “531037 (antisense eA*eA*e[5mC]*eA*eG*dT*dT*dG*dG*dT*dA*dT*dA*dA*dA*eT*eT*eG*eT*eG) [compound 531037]” the “% inhibition” value [4] was 35%.

For “531113 (antisense eA*eA*e[5mC]*eA*eG*dA*d[5mC]*dA*d[5mC]*dA*dT*dT*dA*dT*dT*eT*eA*eT*eA*eT) [compound 531113]”, the “% inhibition” value [1] was 0%.

“531109 (antisense eA*eG*e[5mC]*e[5mC]*e[5mC]*dA*dA*dG*dG*dA*dA*d[5mC]*dA*dT*d[5mC]*eT*e[5mC]*eA*e[5mC]*e[5mC]) [compound 531109]” was tested, and the “% inhibition” value [1] was 52%.

With “531194 (e[5mC]*eT*e[5mC]*eA*e[5mC]*dA*dA*dT*dT*d[5mC]*dT*dG*dT*dA*dA*eG*eG*eG*eA*eA; antisense) [compound 531194]” the “% inhibition” value [2] was 64%.

With “531215 (eT*eA*eG*eA*eG*dA*dT*dT*dT*dT*dA*dT*dG*dT*dA*e[5mC]*eT*eT*eG*eG; antisense) [compound 531215]” the “% inhibition” value [2] was 63%.

For “531202 (eA*eT*eT*eA*eA*dT*dA*dA*dG*d[5mC]*dA*dT*d[5mC]*dT*d[5mC]*eT*e[5mC]*eT*eG*eA; antisense) [compound 531202]”, the “% inhibition” value [2] was 31%.

“531187 (eA*eT*e[5mC]*eT*eA*dT*dT*dG*dG*dT*dT*d[5mC]*dA*dG*dG*eA*eG*e[5mC]*e[5mC]*eA; antisense) [compound 531187]” was tested, and the “% inhibition” value [2] was 72%.

For “531161 (antisense e[5mC]*eA*eG*eA*e[5mC]*dA*d[5mC]*d[5mC]*dT*dT*d[5mC]*dT*dT*d[5mC]*dA*e[5mC]*eA*eA*eG*eG) [compound 531161]”, the “% inhibition” value [2] was 40%.

For “531013 (e[5mC]*e[5mC]*eA*eG*eG*dG*d[5mC]*d[5mC]*dA*d[5mC]*dT*d[5mC]*dT*d[5mC]*d[5mC]*e[5mC]*e[5mC]*eA*eA*eG; antisense) [compound 531013]”, the “% inhibition” value [4] was 56%.

“531143 (antisense e[5mC]*eA*eT*eG*eG*dA*dA*dA*dA*dA*dT*dT*dA*dA*dG*e[5mC]*eT*e[5mC]*eA*eT) [compound 531143]” was tested, and the “% inhibition” value [1] was 0%.

For “531199 (e[5mC]*eT*eT*eT*eG*dA*dA*dT*dA*dG*dA*dA*dA*dA*dT*eG*eA*e[5mC]*eT*eA; antisense) [compound 531199]”, the “% inhibition” value [2] was 1%.

For “530954 (antisense eT*eG*eG*eA*eA*dG*dA*dA*dA*dA*d[5mC]*dT*dG*dA*dA*eT*eA*eG*e[5mC]*eA) [compound 530954]”, the “% inhibition” value [3] was 47%.

In the case of “531183 (antisense e[5mC]*eA*eT*eA*eA*dG*dA*dA*dT*dG*dT*dG*d[5mC]*dA*d[5mC]*eA*e[5mC]*eA*eA*eA) [compound 531183]”, the “% inhibition” value [2] is reported as 39%.

In the case of “531108 (antisense eT*eG*eA*eA*e[5mC]*d[5mC]*d[5mC]*dA*dA*dA*dA*d[5mC]*dT*d[5mC]*dT*eG*eG*e[5mC]*eA*e[5mC]) [compound 531108]”, the “% inhibition” value [1] is reported as 50%.
